Assay results from article PMC8206213, “An L-2-hydroxyglutarate biosensor based on specific transcriptional regulator LhgR” (Nature Communications, 2021).
Values joined by “and” are separate entries in the source; they are usually repeats but may differ in a detail not shown here. Identical values can stand only once.

Tests used:
LhgO = assay: Enzymatic assay of LhgO in crude extracts of P. putida KT2440 derivatives grown on different carbon sources (induction of lhgO under LhgR control); format: cell-based, Pseudomonas putida
Experimental: The cells were harvested at mid-log phase, washed twice and resuspended in phosphate-buffered saline (PBS), then lysed by sonication on ice after the addition of 1 mM phenylmethylsulfonyl fluoride (PMSF). […] Protein concentrations of the supernatants were determined using the Bradford protein assay kit (Sangon, China). […] The 800 μL reaction solution contained 0.1 mM […], 0.05 mM DCPIP, 0.2 mM phenazine methosulfate (PMS) in PBS and 40 μL crude extracts.

LhgR = assay: EMSA, effect of compounds on LhgR binding to the lhgO promoter region F1; parameters: species or system Pseudomonas putida W619; conditions: 50 mM compound, 10 nM F1, 60 nM LhgR
Experimental: Electrophoretic mobility shift assays (EMSAs) were carried out using the DNA fragment (F1 or F2) and purified LhgR. The DNA fragments were first amplified by primer pairs F1-F/F1-R and F2-F/F2-R, respectively. Then, either fragment at a concentration of 10 nM DNA was incubated with LhgR (0–160 nM) in 20 μL EMSA binding buffer (10 mM Tris-HCl [pH 7.4], 50 mM KCl, 0.5 mM EDTA, 10% [vol/vol] glycerol, and 1 mM dithiothreitol [DTT]). The binding reactions were carried out at 30 °C for 30 min. Electrophoresis was performed on 6% native polyacrylamide gels at 4 °C and 170 V (constant voltage) for about 45 min, followed by staining with SYBR green I (TaKaRa, China) and photographing. Analysis of the interaction between lhgO promoter region (F1) and LHGFR was performed using the same procedure.
To characterize the effector of LhgR, purified LhgR was first incubated with L-lysine, 5-aminovalerate, glutarate, L-2-HG, D-2-HG, 2-KG, or succinate at 30 °C for 15 min, followed by incubation with the added DNA fragments at 30 °C for 30 min. The mixtures were subsequently subjected to electrophoresis.

LHGFR0N3C [1] = assay: Specificity of purified LHGFR0N3C, emission ratio with 240 μM compounds; format: binding, Pseudomonas putida W619; conditions: 240 μM compound
LHGFR0N3C [2] = assay: Influence of other compounds on the response of purified LHGFR0N3C to L-2-HG; format: binding, Pseudomonas putida W619; conditions: Suppl. Fig. 9a; L-2-HG alone or with the compound; three replicates
How it was run: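 Purified L-2-HG biosensors were mixed 3:1 with test compounds in 50 mM Tris-HCl pH 7.4, excited at 430 nm, and the 528 nm (Venus)/485 nm (mTFP) emission was read. Responses were fitted with a Hill model giving apparent Kd and Hill slope.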

[3] = system: LHGFR0N3C expressed in E. coli BL21(DE3); assay: Specificity of LHGFR0N3C expressed in E. coli BL21(DE3), 1 mM compounds; format: cell-based; conditions: for Emission ratio: 1 mM compound, Fig. 5c
Experimental: (§1) To characterize the sensitivity and specificity of LHGFR expressed in E. coli BL21(DE3), 90 μL cell suspensions following 8 h carbon starvation were mixed with 10 μL increasing concentrations of L-2-HG or other compounds, and then added into a black 96-well plate (total 100 μL/per well), the fluorescence intensities were determined using an EnSight microplate reader (PerkinElmer, USA) and the following instrument settings: excitation at 430 nm, emission at 485 nm (mTFP) and 528 nm (Venus), time intervals of 5 min, the temperature at 37 °C, and shake at 180 rpm.

[4] = system: LHGFR3N7C expressed in E. coli BL21(DE3); assay: Control biosensor LHGFR3N7C expressed in E. coli, response to added compounds; format: cell-based; conditions: Supplementary Fig. 14a
Experimental: as §1

[5] = system: LHGFR0N3C expressed in HEK293FT cells; assay: Specificity of LHGFR0N3C expressed in permeabilized HEK293FT cells, 1 mM compounds; format: cell-based, human (HEK293FT cells); conditions: 1 mM compound, cells permeabilized with 10 μM digitonin, normalized to control
Experimental: To characterize the sensitivity and specificity of LHGFR expressed in HEK293FT cells, cells were trypsinized 48 h following transfection and suspended in 1× Hank’s balanced salt solution supplemented with 20 mM HEPES. […] Digitonin at a concentration of 10 μM was used to induce cell permeabilization and deplete intracellular L-2-HG for in vivo response curves construction. Then, the fluorescence intensities were determined by a SpectraMax i3 fluorescence plate reader (Molecular Devices, USA) with excitation at 430 nm and emission at 485 nm (mTFP) and 528 nm (Venus). Basal L-2-HG concentration in HEK293FT cells under physiological conditions was determined by substituting the emission ratios of non-permeabilized HEK293FT cells into the calibrated in vivo response curves.

O=C(O)CCCC(=O)O [Glutarate, glutarate]
LhgO activity (LhgO; crude extract of DcsiRDcsiDDlhgO-pME6032-F2-lhgR-F1-lhgO grown with the compound as sole carbon source): no activity of LhgO was detected | LhgO activity (LhgO; crude extract of DcsiRDlhgO-pME6032-F2-lhgR-F1-lhgO grown with the compound as sole carbon source): 0.02427 and 0.01721 and 0.01877 | LhgO activity (LhgO; crude extract of DcsiRDlhgO-pME6032-F2-lhgR-F1-lhgO grown with the compound as sole carbon source, listed as glutarate): activity of LhgO was also detected | LhgO activity (LhgO; crude extract of DcsiRDlhgO-pME6032 grown in MSM with the compound as sole carbon source): 7.09E-04 and 9.66E-04 and 0.00113 | Induction of lhgO expression / effector molecule of LhgR (LhgO; gene segment F2-lhgR-F1-lhgO in P. putida KT2440 derivatives): neither D-2-HG nor glutarate can serve as the effector molecule of LhgR | Effect on LhgR binding to the lhgO promoter region F1 (LhgR): observed only in the presence of L-2-HG | Emission ratio (LHGFR0N3C [1]): 1.395 and 1.399 and 1.404 | Induction of emission ratio changes (LHGFR0N3C [1]): None | Emission ratio (LHGFR0N3C [2]): 2.055 and 2.045 and 2.058 | Emission ratio ([3]; 0 min): 1.019 and 1.014 and 1.009 | Emission ratio ([3]; 5 min): 1.014 and 1.015 and 0.998 | Emission ratio ([3]; 10 min): 1.024 and 1.012 (2×) | Emission ratio ([3]; 15 min): 1.024 and 1.01 and 1.013 | Emission ratio ([3]; 20 min): 1.025 and 1.007 and 1.004 | Emission ratio ([3]; 25 min): 1.02 and 1.008 and 1.012 | Emission ratio ([3]; 30 min): 1.022 and 1.0136 and 1.013 | Emission ratio ([3]; 35 min): 1.0109 and 1.008 and 1.004 | Emission ratio ([3]; 40 min): 1.017 and 1.002 and 1.012 | Emission ratio ([3]; 45 min): 1.022 and 1.0116 and 1.014 | Emission ratio ([3]; 50 min): 1.01 and 1 and 1.016 | Emission ratio ([3]; 55 min): 1.008 and 1.012 and 1.02 | Emission ratio ([3]; 60 min): 1.014 and 1.01 and 1.011 | Emission ratio ([3]; 65 min): 1.021 and 1.007 and 1.017 | Emission ratio ([3]; 70 min): 1.032 and 1.006 and 1.011 | Emission ratio ([3]; 75 min): 1.016 and 1.008 and 1.028 | Emission ratio ([3]; 80 min): 0.9989 and 1.018 and 1.024 | Emission ratio ([3]; 85 min): 1.011 and 1.013 and 1.026 | Emission ratio ([3]; 90 min): 1.005 and 1.016 and 1.027 | Increase of the emission ratio in E. coli BL21(DE3) ([3]; 1 mM exogenous compound): could not | normalized emission ratio of control biosensor expressed in E. coli ([4]; time 0 min): 1.008 and 0.9954 and 0.9826 and 0.9922 | normalized emission ratio of control biosensor expressed in E. coli ([4]; time 5 min): 1.009 and 0.9959 and 0.9842 and 0.997 | normalized emission ratio of control biosensor expressed in E. coli ([4]; time 10 min): 1.009 and 0.9912 and 0.9859 and 0.9988 | normalized emission ratio of control biosensor expressed in E. coli ([4]; time 15 min): 1.011 and 0.9845 and 0.9854 and 0.993 | normalized emission ratio of control biosensor expressed in E. coli ([4]; time 20 min): 1.001 (2×) and 0.9957 and 0.9921 | normalized emission ratio of control biosensor expressed in E. coli ([4]; time 25 min): 1.004 and 0.9829 and 0.99 and 1.01 | normalized emission ratio of control biosensor expressed in E. coli ([4]; time 30 min): 1.003 and 0.9825 and 0.992 and 1.008 | normalized emission ratio of control biosensor expressed in E. coli ([4]; time 35 min): 1.004 (2×) and 0.9933 and 1.0123 | normalized emission ratio of control biosensor expressed in E. coli ([4]; time 40 min): 1.001 and 1.002 and 0.9991 and 1.015 | normalized emission ratio of control biosensor expressed in E. coli ([4]; time 45 min): 1.004 and 1.003 and 1.002 and 1.015 | normalized emission ratio of control biosensor expressed in E. coli ([4]; time 50 min): 1.007 and 1.003 and 0.9994 and 1.015 | normalized emission ratio of control biosensor expressed in E. coli ([4]; time 55 min): 1.005 and 0.994 and 1.003 and 1.016 | normalized emission ratio of control biosensor expressed in E. coli ([4]; time 60 min): 1.022 and 0.993 and 1.012 and 1.027 | normalized emission ratio of control biosensor expressed in E. coli ([4]; time 65 min): 1.018 and 1.003 and 1.0048 and 1.024 | normalized emission ratio of control biosensor expressed in E. coli ([4]; time 70 min): 1.018 (2×) and 1.011 and 1.029 | normalized emission ratio of control biosensor expressed in E. coli ([4]; time 75 min): 1.029 and 0.9995 and 1.018 and 1.031 | normalized emission ratio of control biosensor expressed in E. coli ([4]; time 80 min): 1.036 and 1.008 and 1.027 and 1.028 | normalized emission ratio of control biosensor expressed in E. coli ([4]; time 85 min): 1.027 and 1.007 and 1.024 and 1.023 | normalized emission ratio of control biosensor expressed in E. coli ([4]; time 90 min): 1.042 and 1.01 and 1.0199 and 1.034 | Normalized emission ratio [5]: 0.9633 and 1.016 and 1.046
